# Reference: ChEMBL document CHEMBL1151879, “Discovery of novel benzene 1,3-dicarboxylic acid inhibitors of bacterial MurD and MurE ligases by structure-based virtual screening approach” (Bioorg Med Chem Lett, 2009)
# Tests used:
# [1] = Inhibition of MurD
# Escherichia coli [2] = assay: Inhibition of Escherichia coli MurD assessed as residual activity at 100 uM after 15 mins by malachite green assay
# Escherichia coli [3] = assay: Inhibition of Escherichia coli MurE assessed as residual activity at 100 uM after 15 mins by malachite green assay
# [4] = Inhibition of Escherichia coli MurD
# [5] = Inhibition of Escherichia coli MurE after 15 mins by malachite green assay
# Escherichia coli [6] = assay: Inhibition of Escherichia coli MurE assessed as residual activity at 250 uM after 15 mins by malachite green assay
# Pseudomonas aeruginosa = assay: Antibacterial activity against Pseudomonas aeruginosa ATCC 27853; assay type: functional
# Escherichia coli [7] = assay: Antibacterial activity against Escherichia coli ATCC 25922; assay type: functional
# Enterococcus faecalis = assay: Antibacterial activity against Enterococcus faecalis ATCC 29212; assay type: functional
# Staphylococcus aureus = assay: Antibacterial activity against Staphylococcus aureus ATCC 29213; assay type: functional
# [8] = Inhibition of MurE assessed as residual activity
# Escherichia coli [9] = assay: Inhibition of Escherichia coli MurD assessed as residual activity at 250 uM after 15 mins by malachite green assay
# [10] = Inhibition of Escherichia coli MurD after 15 mins by malachite green assay
structure (smiles),measurement,setting,value
CCCCOc1ccc2cc(S(=O)(=O)N[C@@H](CCC(=O)O)C(=O)O)ccc2c1,IC50,[1],710 µM
COc1cccc(/C=C2\SC(=S)N(C(CCC(=O)O)C(=O)O)C2=O)c1 (stereo not drawn),Activity,Escherichia coli [2],98%
same,Activity,Escherichia coli [3],89%
CCOC(=O)COc1ccc2cc(S(=O)(=O)N[C@H](CCC(=O)O)C(=O)O)ccc2c1,IC50,[4],192 µM
Cc1cc(/C=C2/C(=O)NC(=S)N(c3ccccc3)C2=O)c(C)n1-c1cc(C(=O)O)cc(C(=O)O)c1,IC50,[5],89 µM
COc1ccc(-c2ccc(/C=C3\SC(=S)N(C(CCC(=O)O)C(=O)O)C3=O)o2)c([N+](=O)[O-])c1 (stereo not drawn),Activity,Escherichia coli [2],87%
same,Activity,Escherichia coli [3],70%
same,Activity,Escherichia coli [6],70%
CCOc1ccc2nc(SCC(=O)Nc3cc(C(=O)O)cc(C(=O)O)c3)sc2c1,Activity,Escherichia coli [2],98%
same,Activity,Escherichia coli [3],84%
COC(=O)CC[C@@H](NC(=O)c1ccc(/C=C2\SC(=S)NC2=O)cc1)C(=O)OC,MBC,Pseudomonas aeruginosa,> 128 µg/mL
same,MIC,Pseudomonas aeruginosa,> 128 µg/mL
same,MBC,Escherichia coli [7],> 128 µg/mL
same,MIC,Escherichia coli [7],> 128 µg/mL
same,MBC,Enterococcus faecalis,> 128 µg/mL
same,MIC,Enterococcus faecalis,> 128 µg/mL
same,MBC,Staphylococcus aureus,> 128 µg/mL
same,MIC,Staphylococcus aureus,> 128 µg/mL
C[C@@H](NS(=O)(=O)Cc1ccc([N+](=O)[O-])cc1)C(=O)N[C@H](C)P(=O)(O)C[C@@H](CC(=O)O)C(=O)O,Activity,[8],8%
same,IC50,[4],78 µM
O=C(O)CC[C@@H](NC(=O)c1ccc(CNc2ccc(/C=C3\SC(=S)NC3=O)cc2)cc1)C(=O)O,MBC,Pseudomonas aeruginosa,> 128 µg/mL
same,MIC,Pseudomonas aeruginosa,> 128 µg/mL
same,MBC,Escherichia coli [7],> 128 µg/mL
same,MIC,Escherichia coli [7],> 128 µg/mL
same,MBC,Enterococcus faecalis,> 128 µg/mL
same,MIC,Enterococcus faecalis,> 128 µg/mL
same,MBC,Staphylococcus aureus,> 128 µg/mL
same,MIC,Staphylococcus aureus,> 128 µg/mL
CCOc1ccc2[nH]c(SCC(=O)Nc3cc(C(=O)O)cc(C(=O)O)c3)nc2c1,Activity,Escherichia coli [2],89%
same,Activity,Escherichia coli [3],95%
CCCCOc1ccc2cc(S(=O)(=O)N[C@H](CCC(=O)O)C(=O)O)ccc2c1,IC50,[1],276 µM
Cc1cc(C=C2C(=O)NC(=S)NC2=O)c(C)n1-c1cc(C(=O)O)cc(C(=O)O)c1,Activity,Escherichia coli [2],99%
same,Activity,Escherichia coli [3],76%
O=C(O)CC[C@@H](NC(=O)c1ccc(/C=C2\SC(=S)NC2=O)cc1)C(=O)O,MBC,Pseudomonas aeruginosa,> 128 µg/mL
same,MIC,Pseudomonas aeruginosa,> 128 µg/mL
same,MBC,Escherichia coli [7],> 128 µg/mL
same,MIC,Escherichia coli [7],> 128 µg/mL
same,MBC,Enterococcus faecalis,> 128 µg/mL
same,MIC,Enterococcus faecalis,> 128 µg/mL
same,MBC,Staphylococcus aureus,> 128 µg/mL
same,MIC,Staphylococcus aureus,> 128 µg/mL
Cc1cc(/C=C2/C(=O)NC(=S)N(c3cccc(Cl)c3Cl)C2=O)c(C)n1-c1cc(C(=O)O)cc(C(=O)O)c1,IC50,[5],79 µM
same,Activity,Escherichia coli [2],83%
O=C(O)c1cc(C(=O)O)cc(-c2ccc(/C=C3/SC(=S)N(NC(=O)c4cccs4)C3=O)o2)c1,Activity,Escherichia coli [9],82%
same,Activity,Escherichia coli [6],81%
C[C@@H](NS(=O)(=O)Cc1ccc([N+](=O)[O-])cc1)C(=O)N[C@H](C)P(=O)(O)C[C@H](CCC(=O)O)C(=O)O,IC50,[4],78 µM
C[C@@H](NC(=O)/C=C/c1ccc2c(c1)OCO2)P(=O)(O)C[C@H](CCC(=O)O)C(=O)O,IC50,[4],95 µM
O=C(O)CC[C@@H](NS(=O)(=O)c1ccc2cc(OCCCc3ccccc3)ccc2c1)C(=O)O,IC50,[4],180 µM
Cc1cc(/C=C2/C(=O)NC(=S)N(c3ccc(Cl)cc3)C2=O)c(C)n1-c1cc(C(=O)O)cc(C(=O)O)c1,IC50,[5],97 µM
same,Activity,Escherichia coli [2],69%
CCc1ccccc1N1C(=O)/C(=C\c2cc(C)n(-c3cc(C(=O)O)cc(C(=O)O)c3)c2C)C(=O)NC1=S,Activity,Escherichia coli [2],92%
same,Activity,Escherichia coli [3],55%
O=C(CSc1nc2ccccc2s1)Nc1cc(C(=O)O)cc(C(=O)O)c1,Activity,Escherichia coli [2],97%
same,Activity,Escherichia coli [3],94%
O=C(O)c1cc(C(=O)O)cc(-c2ccc(/C=C3/SC(=S)N(c4ccc5c(c4)OCO5)C3=O)o2)c1,IC50,[10],270 µM
same,IC50,[5],32 µM
CCCCCOc1ccc2cc(S(=O)(=O)N[C@H](CCC(=O)O)C(=O)O)ccc2c1,IC50,[4],239 µM
O=C(O)CCC(C(=O)O)N1C(=O)/C(=C/c2ccc(-c3ccc([N+](=O)[O-])cc3)o2)SC1=S (stereo not drawn),IC50,[5],61 µM
same,Activity,Escherichia coli [2],74%
O=C(O)CC[C@H](NS(=O)(=O)c1ccc2cc(O)ccc2c1)C(=O)O,IC50,[4],90 µM
N#Cc1ccc(COc2ccc3cc(S(=O)(=O)N[C@H](CCC(=O)O)C(=O)O)ccc3c2)cc1,IC50,[4],134 µM
Cc1cc(/C=C2/C(=O)NC(=S)N(c3cccc(Cl)c3)C2=O)c(C)n1-c1cc(C(=O)O)cc(C(=O)O)c1,IC50,[5],104 µM
same,Activity,Escherichia coli [2],90%
